According to US12448388B2, “PRMT5 inhibitors and uses thereof” (Gilead Sciences, Inc., priority 2023, dated 2025):
Where two headings read alike, the source gives them in different places.

System: HCT116 MTAP-deleted cell lines
Test: Cell viability assay (CellTiter-Glo, 7 days), HCT116 MTAP-deleted
Format: cell-based
Settings: Homo sapiens, HCT-116
In short: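 HCT116 MTAP-deleted and wild-type cells exposed to serially diluted compound for 7 days at 37 °C, 5% CO2. Viability read by CellTiter-Glo luminescence; CC50 derived per line, with selectivity comparing WT to MTAP-deleted, limited solubility can inflate values marked *.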

[1] = cell viability assay, HCT116 MTAP-deleted, class symbols, read-out: CC50
[2] = cell viability, HCT116 MTAP-deleted, class symbols, read-out: CC50

| SMILES | CC50 [1] [nM] | CC50 [2] [nM] | also measured |
| --- | --- | --- | --- |
| Nc1nc2cc(Cl)c(C(=O)N3CC[C@H]4C[C@@H]3c3ccc(Cl)c(F)c34)cc2n2cncc12 [Ff-489, (4-amino-7-chloroimidazo[1,5-a]quinoxalin-8-yl)((1R,5S)-7-chloro-6-fluoro-1,3,4,5-tetrahydro-2H-1,5-methanobenzo[c]azepin-2-yl)methanone] | 100 to 1000 |  |  |
| C[C@@H]1CC[C@@H]2Oc3cc(OC(F)(F)F)ccc3[C@@H]2N1C(=O)c1cc2c(cc1F)nc(N)c1cncn12 (single isomer, unassigned) [Ff-491] | < 100 |  |  |
| CN(C(=O)c1cc2c(cc1F)nc(N)c1cncn12)[C@@H]1COc2cc(OC(F)F)ccc21 (single isomer, unassigned) [Ff-559] | < 100 |  |  |
| CN(C(=O)c1ccc2nc(N)c3cncn3c2c1)[C@@H]1COc2cc(-c3cnn(C(F)(F)F)c3)ccc21 [Ff-203, (S)-4-amino-N-methyl-N-(6-(1-(trifluoromethyl)-1H-pyrazol-4-yl)-2,3-dihydrobenzofuran-3-yl)imidazo[1,5-a]quinoxaline-8-carboxamide] |  | < 100 |  |
| Nc1nc2cc(F)c(C(=O)N3CCCC[C@H]3c3ccc(C(F)(F)F)cc3F)cc2n2cncc12 (single isomer, unassigned) [Ff-152] |  | 100 to 1000 |  |
| C[C@H]1OC[C@@H](N(C)C(=O)c2cc3c(cc2Cl)nc(N)c2cncn23)c2ccc(C(F)(F)F)cc21 (racemic) [Ff-284, Rac-4-amino-7-chloro-N-methyl-N-((1R,4S)-1-methyl-7-(trifluoromethyl)isochroman-4-yl)imidazo[1,5-a]quinoxaline-8-carboxamide] |  | < 100 |  |
| Nc1nc2ccc(C(=O)N3CCC[C@@H]4OCc5cc(OC(F)F)ccc5[C@@H]43)cc2n2cncc12 (racemic) [Ff-288, Rac-(4-aminoimidazo[1,5-a]quinoxalin-8-yl)((4aS,10bS)-8-(difluoromethoxy)-2,3,4,4a,6,10b-hexahydro-1H-isochromeno[4,3-b]pyridin-1-yl)methanone] |  | < 100 |  |
| Nc1nc2cnc(C(=O)N3CCC[C@@H]4Oc5cc(C(F)(F)F)c(Cl)cc5[C@@H]43)cc2n2cncc12 [Ff-259, (4-aminoimidazo[1,5-a]pyrido[3,4-e]pyrazin-8-yl)((4aS,9bS)-8-chloro-7-(trifluoromethyl)-3,4,4a,9b-tetrahydrobenzofuro[3,2-b]pyridin-1(2H)-yl)methanone] |  | < 100 |  |
| Cc1ncn2c1c(N)nc1cnc(C(=O)N3CCO[C@@H]4Cc5cc(OC(F)(F)F)c(F)cc5[C@@H]43)cc12 [Ff-180, (4-amino-3-methylimidazo[1,5-a]pyrido[3,4-e]pyrazin-8-yl)((4aS,9aR)-6-fluoro-7-(trifluoromethoxy)-2,3,9,9a-tetrahydroindeno[2,1-b][1,4]oxazin-4(4aH)-yl)methanone] |  | < 100 |  |
| Cc1ncc2c(N)nc3cnc(C(=O)N4CCC[C@@H]5Oc6cc(S(F)(F)(F)(F)F)ccc6[C@@H]54)cc3n12 [Fg-43, (4-amino-1-methylimidazo[1,5-a]pyrido[3,4-e]pyrazin-8-yl)((4aS,9bS)-7-(pentafluoro-16-sulfaneyl)-3,4,4a,9b-tetrahydrobenzofuro[3,2-b]pyridin-1(2H)-yl)methanone] | < 100 |  |  |
| C[C@H]1OC[C@@H](N(C)C(=O)c2cc3c(cc2F)nc(N)c2cncn23)c2ccc(C(F)(F)F)cc21 (racemic) [Ff-283, Rac-4-amino-7-fluoro-N-methyl-N-((1R,4S)-1-methyl-7-(trifluoromethyl)isochroman-4-yl)imidazo[1,5-a]quinoxaline-8-carboxamide] |  | < 100 |  |
| C[C@H](C(N)=O)N(Cc1ccc(C(F)(F)F)cc1F)C(=O)c1cc2c(cc1F)nc(N)c1cncn12 [Ff-420, 4-amino-N-[(1R)-2-amino-1-methyl-2-oxo-ethyl]-7-fluoro-N-[[2-fluoro-4-(trifluoromethyl)phenyl]methyl]imidazo[1,5-a]quinoxaline-8-carboxamide] | 100 to 1000 |  |  |
| Nc1nc2ccc(C(=O)N3CCO[C@@H]4Cc5cc(OC(F)(F)F)c(F)cc5[C@@H]43)cc2n2cncc12 [Ff-177, (4-aminoimidazo[1,5-a]quinoxalin-8-yl)((4aS,9aR)-6-fluoro-7-(trifluoromethoxy)-2,3,9,9a-tetrahydroindeno[2,1-b][1,4]oxazin-4(4aH)-yl)methanone] |  | < 100 |  |
| C[C@@H]1CN(C(=O)c2cc3c(cc2F)nc(N)c2cncn23)[C@@H](c2ccc(C(F)(F)F)cn2)CO1 [Ff-129, (4-amino-7-fluoroimidazo[1,5-a]quinoxalin-8-yl)((2R,5S)-2-methyl-5-(5-(trifluoromethyl)pyridin-2-yl)morpholino)methanone] |  | < 100 |  |
| Nc1nc2ccc(C(=O)N3CCC[C@@H]4Oc5c(ccc(C(F)(F)F)c5F)[C@@H]43)cc2n2cncc12 [Ff-118, (4-aminoimidazo[1,5-a]quinoxalin-8-yl)((4aS,9bS)-6-fluoro-7-(trifluoromethyl)-3,4,4a,9b-tetrahydrobenzofuro[3,2-b]pyridin-1(2H)-yl)methanone] |  | < 100 |  |
| CC(=O)N1CC(C#Cc2ccc3c(c2)OC[C@H]3N(C)C(=O)c2ccc3nc(N)c4cncn4c3c2)C1 [Ff-529] | 100 to 1000 |  |  |

| SMILES | CC50 [1] [nM] | CC50 [2] [nM] | also measured |
| --- | --- | --- | --- |
| Cc1ncn2c1c(N)nc1cc(F)c(C(=O)N(C)[C@@H]3COc4cc(C(F)(F)F)ccc43)cc12 [Ff-305, (S)-4-amino-7-fluoro-N,3-dimethyl-N-(6-(trifluoromethyl)-2,3-dihydrobenzofuran-3-yl)imidazo[1,5-a]quinoxaline-8-carboxamide] |  | < 100 |  |
| C[C@@H]1CN(C(=O)c2cc3c(cc2F)nc(N)c2cncn23)[C@H]2c3ccccc3C[C@H]2O1 (racemic) [Ff-56, Rac-(4-amino-7-fluoroimidazo[1,5-a]quinoxalin-8-yl)((2R,4aS,9aR)-2-methyl-2,3,9,9a-tetrahydroindeno[2,1-b][1,4]oxazin-4(4aH)-yl)methanone] |  | 100 to 1000 |  |
| Nc1nc2cc(F)c(C(=O)N3CC4(CC[C@H]3c3ccc(C(F)(F)F)cc3)CC4)cc2n2cncc12 (single isomer, unassigned) [Ff-155] |  |  | CC50: 100 to 1000 nM |
| C[C@@H]1C[C@@H]2Oc3cc(OC(F)(F)F)ccc3[C@@H]2N(C(=O)c2cc3c(cn2)nc(N)c2cncn23)C1 [Ff-507, (4-aminoimidazo[1,5-a]pyrido[3,4-e]pyrazin-8-yl)((3R,4aS,9bS)-3-methyl-7-(trifluoromethoxy)-3,4,4a,9b-tetrahydrobenzofuro[3,2-b]pyridin-1(2H)-yl)methanone] | < 100 |  |  |
| C[C@@H]1CN(C(=O)c2ccc3nc(N)c4cncn4c3c2)[C@H]2c3cc(F)c(OC(F)(F)F)cc3C[C@H]2O1 (single isomer, unassigned) [Ff-628] | < 100 |  |  |
| CN(C(=O)c1ccc2nc(N)c3cncn3c2c1)[C@@H]1COc2cc(F)ccc21 [Ff-569, (S)-4-amino-N-(6-fluoro-2,3-dihydrobenzofuran-3-yl)-N-methylimidazo[1,5-a]quinoxaline-8-carboxamide] | 100 to 1000 |  |  |
| Nc1nc2cc(F)c(C(=O)N3CCC[C@@H]4Oc5cc(OC(F)F)c(F)cc5[C@@H]43)cc2n2cncc12 (racemic) [Ff-157, rac-(4-amino-7-fluoroimidazo[1,5-a]quinoxalin-8-yl)((4aS,9bS)-7-(difluoromethoxy)-8-fluoro-3,4,4a,9b-tetrahydrobenzofuro[3,2-b]pyridin-1(2H)-yl)methanone] |  | < 100 |  |
| CN(C(=O)c1cc2c(cc1F)nc(N)c1cncn12)[C@@H]1COc2cc([C@H]3C[C@@H]3C#N)ccc21 (single isomer, unassigned) [Ff-481] | < 100 |  |  |
| CN(C(=O)c1cc2c(cc1F)nc(N)c1cncn12)[C@@H]1COc2ccc([C@H]3C[C@@H]3C#N)cc21 (stereo in doubt) [Ff-263, Trans-4-amino-N-((3S)-5-(2-cyanocyclopropyl)-2,3-dihydrobenzofuran-3-yl)-7-fluoro-N-methylimidazo[1,5-a]quinoxaline-8-carboxamide] |  | 100 to 1000 |  |
| CO[C@@H]1Cc2cc(-c3cnn(C(F)F)c3)ccc2[C@@H]1N(C)C(=O)c1cc2c(cc1F)nc(N)c1cncn12 [Ff-580, 4-amino-N-((1S,2R)-5-(1-(difluoromethyl)-1H-pyrazol-4-yl)-2-methoxy-2,3-dihydro-1H-inden-1-yl)-7-fluoro-N-methylimidazo[1,5-a]quinoxaline-8-carboxamide] | 100 to 1000 |  |  |
| Nc1nc2cc(F)c(C(=O)N3CCCCC3c3ccc(C(F)(F)F)cn3)cc2n2cncc12 (stereo not shown) [Ff-133, (4-amino-7-fluoroimidazo[1,5-a]quinoxalin-8-yl)(2-(5-(trifluoromethyl)pyridin-2-yl)piperidin-1-yl)methanone] |  | < 100 |  |
| Nc1nc2cc(F)c(C(=O)N3CC[C@H]4C[C@@H]3c3ccc(OC(F)(F)F)cc3O4)cc2n2cncc12 (racemic) [Ff-372, Rac-(4-amino-7-fluoroimidazo[1,5-a]quinoxalin-8-yl)((2S,6R)-9-(trifluoromethoxy)-3,4-dihydro-2H-2,6-methanobenzo[b][1,5]oxazocin-5(6H)-yl)methanone] | < 100 |  |  |
| CN(Cc1ccc([C@@H]2C[C@H]2c2ccn(C(F)F)n2)cc1F)C(=O)c1cc2c(cc1F)nc(N)c1cncn12 [Ff-429, 4-amino-N-[[4-[(1R,2R)-2-[1-(difluoromethyl)pyrazol-3-yl]cyclopropyl]-2-fluoro-phenyl]methyl]-7-fluoro-N-methyl-imidazo[1,5-a]quinoxaline-8-carboxamide] | < 100 |  |  |
| C[C@H]1CN(C(=O)c2ccc3nc(N)c4cncn4c3c2)[C@H]2c3cc(F)c(C(F)(F)F)cc3C[C@H]2O1 [Ff-246, (4-aminoimidazo[1,5-a]quinoxalin-8-yl)((2S,4aS,9aR)-6-fluoro-2-methyl-7-(trifluoromethyl)-2,3,9,9a-tetrahydroindeno[2,1-b][1,4]oxazin-4(4aH)-yl)methanone] |  | < 100 |  |
| Cc1ncc2c(N)nc3ccc(C(=O)N(C)[C@@H]4COc5c4ccc(C(F)(F)F)c5F)cc3n12 [Ff-355, (S)-4-amino-N-(7-fluoro-6-(trifluoromethyl)-2,3-dihydrobenzofuran-3-yl)-N,1-dimethylimidazo[1,5-a]quinoxaline-8-carboxamide] |  | 100 to 1000 |  |
